# Experimental data as given in ChEMBL document CHEMBL4840376, “Berkeleylactones and a Citreohybriddione Analogue from Penicillium turbatum” (2021).
# Where “and” joins values, the source holds several entries; their conditions need not be identical. Equal entries are not always repeated. Calls of active or inactive are those of the source. The calls are words filed in the database; no cut-off is given here.
# Assays:
# Staphylococcus aureus [1] = assay: Antibiotic activity against Staphylococcus aureus ATCC 13709 assessed as reduction in bacterial growth by Alamar Blue dye based CLSI broth microdilution method; format: functional
# Nakaseomyces glabratus = assay: Antibiotic activity against Candida glabrata assessed as reduction in fungal growth by Alamar Blue dye based CLSI broth microdilution method; format: functional
# Bacillus subtilis = assay: Antibiotic activity against Bacillus subtilis ATCC 6633 assessed as reduction in bacterial growth by Alamar Blue dye based CLSI broth microdilution method; format: functional
# Candida albicans = assay: Antibiotic activity against Candida albicans assessed as reduction in fungal growth by Alamar Blue dye based CLSI broth microdilution method; format: functional
# Streptococcus pyogenes = assay: Antibiotic activity against Streptococcus pyogenes assessed as reduction in bacterial growth by Alamar Blue dye based CLSI broth microdilution method; format: functional
# Bacillus anthracis = assay: Antibiotic activity against Bacillus anthracis assessed as reduction in bacterial growth by Alamar Blue dye based CLSI broth microdilution method; format: functional
# Klebsiella pneumoniae = assay: Antibiotic activity against Klebsiella pneumoniae ATCC 10031 assessed as reduction in bacterial growth by Alamar Blue dye based CLSI broth microdilution method; format: functional, organism-based
# Escherichia coli = assay: Antibiotic activity against Escherichia coli ATCC 25922 assessed as reduction in bacterial growth by Alamar Blue dye based CLSI broth microdilution method; format: functional, organism-based
# Pseudomonas aeruginosa = assay: Antibiotic activity against Pseudomonas aeruginosa assessed as reduction in bacterial growth by Alamar Blue dye based CLSI broth microdilution method; format: functional, organism-based
# Staphylococcus aureus [2] = assay: Antibiotic activity against multidrug-resistant Staphylococcus aureus NE277 assessed as reduction in bacterial growth by Alamar Blue dye based CLSI broth microdilution method; format: functional, organism-based
# Staphylococcus aureus [3] = assay: Antibiotic activity against multidrug-resistant Staphylococcus aureus CAIRD148 assessed as reduction in bacterial growth by Alamar Blue dye based CLSI broth microdilution method; format: functional, organism-based
# Staphylococcus aureus [4] = assay: Antibiotic activity against multidrug-resistant Staphylococcus aureus CAIRD142 assessed as reduction in bacterial growth by Alamar Blue dye based CLSI broth microdilution method; format: functional, organism-based
# Staphylococcus aureus [5] = assay: Antibiotic activity against multidrug-resistant Staphylococcus aureus CAIRD116 assessed as reduction in bacterial growth by Alamar Blue dye based CLSI broth microdilution method; format: functional, organism-based
structure (smiles),measurement,setting,value
C[C@@H]1CCCCCCCCC[C@H](O)[C@H](O)/C=C/C(=O)O1,MIC,Staphylococcus aureus [1],250 µM and 71 µg/mL
same,MIC,Nakaseomyces glabratus,> 250 µM and > 71 µg/mL
same,MIC,Bacillus subtilis,> 250 µM and > 71 µg/mL
same,MIC,Candida albicans,> 250 µM and > 71 µg/mL
same,MIC,Streptococcus pyogenes,> 250 µM and > 71 µg/mL
same,MIC,Bacillus anthracis,250 µM and > 71 µg/mL
C[C@@H](O)CCCCCCCCC[C@H](OC(=O)CCC(=O)O)[C@H]1CCC(=O)O1,Activity,Klebsiella pneumoniae,inactive
same,MIC,Staphylococcus aureus [1],500 µM and 193 µg/mL
same,MIC,Nakaseomyces glabratus,500 µM and 193 µg/mL
same,Activity,Escherichia coli,inactive
same,Activity,Pseudomonas aeruginosa,inactive
same,MIC,Bacillus subtilis,500 µM and 193 µg/mL
same,MIC,Candida albicans,125 µM and 48 µg/mL
same,MIC,Streptococcus pyogenes,> 500 µM and 193 µg/mL
same,MIC,Bacillus anthracis,> 500 µM and 193 µg/mL
COC(=O)[C@]12C(=O)[C@]3(C)O[C@](C)(C=C4[C@]5(C=O)CC[C@H](OC(C)=O)C(C)(C)[C@H]5CC[C@@]41C)[C@@]2(C)C3=O,Activity,Klebsiella pneumoniae,inactive
same,MIC,Staphylococcus aureus [1],125 µM and 62 µg/mL
same,MIC,Nakaseomyces glabratus,> 500 µM and > 248 µg/mL
same,Activity,Escherichia coli,inactive
same,Activity,Pseudomonas aeruginosa,inactive
same,MIC,Bacillus subtilis,250 µM and 124 µg/mL
same,MIC,Candida albicans,> 500 µM and > 248 µg/mL
same,MIC,Bacillus anthracis,125 µM and 62 µg/mL
C[C@@H]1CCCCCCCCCC[C@H](O)/C=C/C(=O)O1,MIC,Staphylococcus aureus [1],125 µM and 33 µg/mL
same,MIC,Nakaseomyces glabratus,> 250 µM and > 67 µg/mL
same,MIC,Bacillus subtilis,125 µM and 33 µg/mL
same,MIC,Candida albicans,> 250 µM and > 67 µg/mL
same,MIC,Streptococcus pyogenes,250 µM and 67 µg/mL
same,MIC,Bacillus anthracis,125 µM and > 67 µg/mL
C[C@@H]1CCCCCCCCC[C@H](OC(=O)CCC(=O)O)C(=O)/C=C/C(=O)O1,Activity,Staphylococcus aureus [2],Active
same,MIC,Staphylococcus aureus [1],8 µM and 3 µg/mL
same,Activity,Staphylococcus aureus [3],Active
same,MIC,Nakaseomyces glabratus,125 µM and 48 µg/mL
same,Activity,Staphylococcus aureus [4],Active
same,Activity,Staphylococcus aureus [5],Active
same,MIC,Bacillus subtilis,32 µM and 12 µg/mL
same,MIC,Candida albicans,250 µM and 96 µg/mL
same,MIC,Streptococcus pyogenes,125 µM and 48 µg/mL
same,MIC,Bacillus anthracis,16 µM and 6 µg/mL
C[C@@H]1CCCCCCCCC[C@H](OC(=O)CCC(=O)O)[C@H](O)CCC(=O)O1,Activity,Klebsiella pneumoniae,inactive
same,MIC,Staphylococcus aureus [1],> 500 µM and > 45 µg/mL
same,MIC,Nakaseomyces glabratus,> 500 µM and > 45 µg/mL
same,Activity,Escherichia coli,inactive
same,Activity,Pseudomonas aeruginosa,inactive
same,MIC,Bacillus subtilis,> 500 µM and > 45 µg/mL
same,MIC,Candida albicans,> 500 µM and > 45 µg/mL
same,MIC,Streptococcus pyogenes,> 500 µM and > 45 µg/mL
same,MIC,Bacillus anthracis,> 500 µM and > 45 µg/mL
C[C@@H]1CCC(O)CCCCCC[C@H](OC(=O)CCC(=O)O)C(=O)/C=C/C(=O)O1 (some centres undefined),Activity,Staphylococcus aureus [2],Active
same,MIC,Staphylococcus aureus [1],32 µM and 13 µg/mL
same,Activity,Staphylococcus aureus [3],Active
same,MIC,Nakaseomyces glabratus,> 500 µM and > 200 µg/mL
same,Activity,Staphylococcus aureus [4],Active
same,Activity,Staphylococcus aureus [5],Active
same,MIC,Bacillus subtilis,125 µM and 50 µg/mL
same,MIC,Candida albicans,> 500 µM and > 200 µg/mL
same,MIC,Streptococcus pyogenes,250 µM and 100 µg/mL
same,MIC,Bacillus anthracis,64 µM and 26 µg/mL
C[C@@H]1CCCCCCCCC[C@H](O)[C@H](OC(=O)CCC(=O)O)/C=C/C(=O)O1,MIC,Staphylococcus aureus [1],125 µM and 45 µg/mL
same,MIC,Nakaseomyces glabratus,> 250 µM and > 90 µg/mL
same,MIC,Bacillus subtilis,125 µM and 45 µg/mL
same,MIC,Candida albicans,> 250 µM and > 90 µg/mL
same,MIC,Streptococcus pyogenes,> 250 µM and > 90 µg/mL
same,MIC,Bacillus anthracis,250 µM and > 90 µg/mL
C[C@@H]1CCCCCCCCC[C@H](OC(=O)CCC(=O)O)[C@H](O)/C=C/C(=O)O1,MIC,Staphylococcus aureus [1],125 µM and 45 µg/mL
same,MIC,Nakaseomyces glabratus,> 250 µM and > 90 µg/mL
same,MIC,Bacillus subtilis,> 250 µM and > 90 µg/mL
same,MIC,Candida albicans,> 250 µM and > 90 µg/mL
same,MIC,Streptococcus pyogenes,> 250 µM and > 90 µg/mL
same,MIC,Bacillus anthracis,> 250 µM and > 90 µg/mL
C[C@@H](O)CCCCCCCCC[C@H](O)[C@H]1CCC(=O)O1,Activity,Klebsiella pneumoniae,inactive
same,MIC,Staphylococcus aureus [1],500 µM and 143 µg/mL
same,MIC,Nakaseomyces glabratus,> 500 µM and > 143 µg/mL
same,Activity,Escherichia coli,inactive
same,Activity,Pseudomonas aeruginosa,inactive
same,MIC,Bacillus subtilis,> 500 µM and > 143 µg/mL
same,MIC,Candida albicans,> 500 µM and > 143 µg/mL
same,MIC,Streptococcus pyogenes,16 µM and 5 µg/mL
same,MIC,Bacillus anthracis,> 500 µM and > 143 µg/mL
